Laboratory results taken from patent US20220135567A1, “TYK2 PSEUDOKINASE LIGANDS” (Ventyx Biosciences, Inc., priority 2019, published 2022).

What follows are compounds tested on IFN-a/Jak1Tyk2 (assay: Co-stimulation assay in lysed whole blood: IFNa (JAK1/TYK2) stimulated STAT1 phosphorylation). Conditions: 20 min, lysed human whole blood, IFNa 100 ng/mL + GM-CSF 10 ng/mL, pSTAT1 by flow cytometry.
Type: cell-based
In short: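 Red-cell-lysed human whole blood, pretreated with compound for 1 h at 37°C, was stimulated 20 min at 37°C with IFNa (100 ng/mL final) plus GM-CSF (10 ng/mL final). Cells were then fixed/lysed, permeabilised in Perm Buffer III and stained overnight for pSTAT1 (PE) and pSTAT5. Read-out by flow cytometry.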
With CNc1cc(Nc2cccn(-c3ccc(OC)nn3)c2=O)nc2c(C(=O)NC3CC(O)C3)cnn12 (stereo not drawn) [Compound 104, N-(3-hydroxycyclobutyl)-5-((1-(6-methoxypyridazin-3-yl)-2-oxo-1,2-dihydropyridin-3-yl)amino)-7-(methylamino)pyrazolo[1,5-a]pyrimidine-3-carboxamide] the IC50 was 0.1 to 1 µM. In the case of CNc1cc(Nc2csnc2C(=O)O)nc2c(C(=O)NCCOC)cnn12 [Compound 46, 4-((3-((2-methoxyethyl)carbamoyl)-7-(methylamino)pyrazolo[1,5-a]pyrimidin-5-yl)amino)isothiazole-3-carboxylic acid], the IC50 is reported as > 0.3 µM. CNc1cc(Nc2cccn(-c3ccc(OC)nn3)c2=O)nc2c(C(=O)NCC(C)(C)CO)cnn12 [Compound 66, N-(3-hydroxy-2,2-dimethylpropyl)-5-((1-(6-methoxypyridazin-3-yl)-2-oxo-1,2-dihydropyridin-3-yl)amino)-7-(methylamino)pyrazolo[1,5-a]pyrimidine-3-carboxamide] showed an IC50 of 0.1 to 1 µM. With CNc1cc(Nc2csnc2C(=O)OC)nc2c(C(=O)NC3CC3)cnn12 [Compound 39, methyl 4-((3-(cyclopropylcarbamoyl)-7-(methylamino)pyrazolo[1,5-a]pyrimidin-5-yl)amino)isothiazole-3-carboxylate] the IC50 was > 0.3 µM. CNc1cc(Nc2cc(C(F)(F)F)cnc2OC)nc2c(C(=O)NC3CC3)cnn12 [Compound 62, N-cyclopropyl-5-((2-methoxy-5-(trifluoromethyl)pyridin-3-yl)amino)-7-(methylamino)pyrazolo[1,5-a]pyrimidine-3-carboxamide] gave an IC50 of 1 to 10 µM. With [2H]C([2H])([2H])n1cccc(Nc2cc(NC)n3ncc(C(=O)N[C@@H]4C[C@@H]4F)c3n2)c1=O [Compound 85, N-((1R,2S)-2-fluorocyclopropyl)-5-((1-(methyl-d3)-2-oxo-1,2-dihydropyridin-3-yl)amino)-7-(methylamino)pyrazolo[1,5-a]pyrimidine-3-carboxamide] the IC50 was < 0.1 µM. [2H]C([2H])([2H])n1cccc(Nc2cc(NC)n3ncc(C(=O)N[C@H]4C[C@H]4F)c3n2)c1=O [Compound 83, N-((1S,2R)-2-fluorocyclopropyl)-5-((1-(methyl-d3)-2-oxo-1,2-dihydropyridin-3-yl)amino)-7-(methylamino)pyrazolo[1,5-a]pyrimidine-3-carboxamide] gave an IC50 of 0.1 to 1 µM. For [2H]C([2H])([2H])Nc1cc(Nc2cccn(C)c2=O)nc2c(C(=O)NC3CCC3)cnn12 [Compound 94, N-cyclobutyl-5-((1-methyl-2-oxo-1,2-dihydropyridin-3-yl)amino)-7-((methyl-d3)amino)pyrazolo[1,5-a]pyrimidine-3-carboxamide], the IC50 was < 0.1 µM. CNc1cc(Nc2cccn(-c3cccc(C)n3)c2=O)nc2c(C(=O)NC3CC(C#N)C3)cnn12 (stereo not drawn) [Compound 99, N-(3-cyanocyclobutyl)-5-((6′-methyl-2-oxo-2H-[1,2′-bipyridin]-3-yl)amino)-7-(methylamino)pyrazolo[1,5-a]pyrimidine-3-carboxamide] showed an IC50 of 1 to 10 µM. CNc1cc(Nc2ccn(CC(F)(F)F)n2)nc2c(C(=O)NC3CC3)cnn12 [Compound 64, N-cyclopropyl-7-(methylamino)-5-((1-(2,2,2-trifluoroethyl)-1H-pyrazol-3-yl)amino)pyrazolo[1,5-a]pyrimidine-3-carboxamide] was tested, and the IC50 was > 0.3 µM. With CNc1cc(Nc2cccn(-c3cccc(C)n3)c2=O)nc2c(C(=O)NC3CCC3)cnn12 [Compound 112, N-cyclobutyl-5-((6′-methyl-2-oxo-2H-[1,2′-bipyridin]-3-yl)amino)-7-(methylamino)pyrazolo[1,5-a]pyrimidine-3-carboxamide] the IC50 was < 0.1 µM. With CNc1cc(Nc2cccn(-c3ccccn3)c2=O)nc2c(C(=O)NC3CC3)cnn12 [Compound 33, N-cyclopropyl-7-(methylamino)-5-((2-oxo-2H-[1,2′-bipyridin]-3-yl)amino)pyrazolo[1,5-a]pyrimidine-3-carboxamide] the IC50 was < 0.1 µM. For CNc1cc(Nc2cccn(-c3ccccn3)c2=O)nc2c(C(=O)NC3CCC3)cnn12 [Compound 114, N-cyclobutyl-7-(methylamino)-5-((2-oxo-2H-[1,2′-bipyridin]-3-yl)amino)pyrazolo[1,5-a]pyrimidine-3-carboxamide], the IC50 was < 0.1 µM. Compound CNc1cc(Nc2cc(Cl)ccc2OC(F)(F)F)nc2c(C(=O)NC3CC3)cnn12 [Compound 57, 5-((5-chloro-2-(trifluoromethoxy)phenyl)amino)-N-cyclopropyl-7-(methylamino)pyrazolo[1,5-a]pyrimidine-3-carboxamide] has an IC50 of 0.1 to 1 µM. For CNc1cc(Nc2cnn(C3CCNC3=O)c2)nc2c(C(=O)NC3CC3)cnn12 (stereo not drawn) [Compound 116, N-cyclopropyl-7-(methylamino)-5-((1-(2-oxopyrrolidin-3-yl)-1H-pyrazol-4-yl)amino)pyrazolo[1,5-a]pyrimidine-3-carboxamide], the IC50 was 1 to 10 µM. In the case of CNc1cc(Nc2cccc(N3CCN(C)CC3)c2)nc2c(C(=O)NC3CC3)cnn12 [Compound 51, N-cyclopropyl-7-(methylamino)-5-((3-(4-methylpiperazin-1-yl)phenyl)amino)pyrazolo[1,5-a]pyrimidine-3-carboxamide], the IC50 is reported as < 0.1 µM. With CNc1cc(Nc2cccn(-c3ccc(OC)nn3)c2=O)nc2c(C(=O)N[C@@H]3C[C@@H]3F)cnn12 [Compound 101, N-((1R,2S)-2-fluorocyclopropyl)-5-((1-(6-methoxypyridazin-3-yl)-2-oxo-1,2-dihydropyridin-3-yl)amino)-7-(methylamino)pyrazolo[1,5-a]pyrimidine-3-carboxamide] the IC50 was < 0.1 µM. With CNc1cc(Nc2cn(C)nc2C(=O)Nc2ccc(N(C)C)cc2)nc2c(C(=O)NC3CC3)cnn12 [Compound 41, N-cyclopropyl-5-((3-((4-(dimethylamino)phenyl)carbamoyl)-1-methyl-1H-pyrazol-4-yl)amino)-7-(methylamino)pyrazolo[1,5-a]pyrimidine-3-carboxamide] the IC50 was < 0.1 µM. CNc1cc(Nc2cccc3c2OCCO3)nc2c(C(=O)NCC(C)(C)CO)cnn12 [Compound 25, 5-((2,3-dihydrobenzo[b][1,4]dioxin-5-yl)amino)-N-(3-hydroxy-2,2-dimethylpropyl)-7-(methylamino)pyrazolo[1,5-a]pyrimidine-3-carboxamide] was tested, and the IC50 was < 0.1 µM. For CNc1cc(Nc2cc(F)cc(F)c2OC)nc2c(C(=O)NCC(C)(C)CO)cnn12 [Compound 23, 5-((3,5-difluoro-2-methoxyphenyl)amino)-N-(3-hydroxy-2,2-dimethylpropyl)-7-(methylamino)pyrazolo[1,5-a]pyrimidine-3-carboxamide], the IC50 was < 0.1 µM. CNc1cc(Nc2cnn(CCOC)c2)nc2c(C(=O)NC3CC3)cnn12 [Compound 47, N-cyclopropyl-5-((1-(2-methoxyethyl)-1H-pyrazol-4-yl)amino)-7-(methylamino)pyrazolo[1,5-a]pyrimidine-3-carboxamide] was tested, and the IC50 was > 0.3 µM. For CNc1cc(Nc2cccn(C)c2=O)nc2c(C(=O)NC3CC(OC)C3)cnn12 (stereo not drawn) [Compound 88, N-(3-methoxycyclobutyl)-5-((1-methyl-2-oxo-1,2-dihydropyridin-3-yl)amino)-7-(methylamino)pyrazolo[1,5-a]pyrimidine-3-carboxamide], the IC50 was > 3 µM. In the case of CNc1cc(Nc2ccc3c(c2)OCCO3)nc2c(C(=O)NC3CC3)cnn12 [Compound 27, N-cyclopropyl-5-((2,3-dihydrobenzo [b][1,4]dioxin-6-yl)amino)-7-(methylamino)pyrazolo[1,5-a]pyrimidine-3-carboxamide], the IC50 is reported as < 0.1 µM. Compound CNc1cc(Nc2cccn(-c3cc(C)n(C)n3)c2=O)nc2c(C(=O)NC3CC3)cnn12 [Compound 32, N-cyclopropyl-5-((1-(1,5-dimethyl-1H-pyrazol-3-yl)-2-oxo-1,2-dihydropyridin-3-yl)amino)-7-(methylamino)pyrazolo[1,5-a]pyrimidine-3-carboxamide] has an IC50 of 0.1 to 1 µM.
